What was measured:
[1] = test system: C8161.C19 cells; assay: cytotoxicity of pharmacological agents alone or combined (CellTiter 96), 48 hours; format: cell-based; conditions: for cell viability, single agents: 0.15 μM MK1775, 0.31 to 2.5 μM GDC0068, 1.25 to 10 μM AZD5363, FIG. 3E, 3G
Method: (§1) Cytotoxicity of these agents alone or in combination in melanoma cells was measured by plating 2.5 to 5×10^3 cells into 96-well plates followed by growth for 24 to 48 hours in a humidified 37° C. cell culture incubator. […] Control cells were treated with vehicle (DMSO) alone. Cytotoxicity was measured using the CellTiter 96 Aqueous Non-Radioactive Cell Proliferation Assay (Promega). The combined effects of MK1775 and GDC0068 were quantified using CalcuSyn software.

[2] = test system: UACC 903 human melanoma tumors; assay: UACC 903 melanoma xenograft, oral drug treatment; format: in vivo, athymic-Foxn1^nu nude mice; conditions: MK1775 50 mg/kg, AZD5363 150 mg/kg, oral daily for 18 days; vs vehicle
Method: Tumor kinetics studies were undertaken in athymic-Foxn1^nu nude mice (Harlan Laboratories, Indianapolis, IN, USA). In genetic knockdown models, siRNA targeting AKT3 and WEE1 alone or in combination was nucleofected into 1×10^6 UACC 903 or 1205 Lu cells as described above. Cells transfected with scrambled siRNA were used as a control. After plating and allowing the cells to recover for 48 hours, 1×10^6 cells were aliquoted in 0.2 ml of 10% FBS-DMEM and then injected subcutaneously above both the left and right rib cages of 4-6 week old female mice (3-4 mice/group). Dimensions of developing tumors were measured on alternate days, using calipers to estimate size by multiplying length, width and depth in mm^3. For pharmacological synergy studies, 1×10^6 UACC 903 cells were injected subcutaneously above both the left and right rib cages of 4-6 week old female mice. […] Drugs were prepared in 0.5% methylcellulose, 0.5% Tween 80, 5% DMSO and 200 uL administered per oral treatment.
At the end of the study, blood samples were collected from each mouse, serum was separated and levels of various toxicity markers were analyzed. All of the measured biomarkers in samples collected from mice were within the normal range which excludes any toxicity caused by these drugs. […]

[3] = serum analysis of toxicity markers at end of study; format: in vivo, mice; conditions: for CREA / BUN: kidney; for CREA: reference levels 0.1-0.3; for BUN: reference levels 18-33.7; for TBIL / ALB / SGPT (ALT) / ALKP: liver function; for TBIL: reference levels 0.1-0.9; for ALB: reference levels 2.5-4.8; for SGPT (ALT): reference levels 33-132, UACC 903 xenograft mice, oral daily; for ALKP: reference levels 62-209; for GLOB: no reference levels printed; for TP / CHOL / GLU: others; for TP: reference levels 3.6-6.6; for CHOL: reference levels 92-157; for GLU: reference levels 198-247; for AMYL: pancreas, reference levels 1691-3615
Method: At the end of the study, blood samples were collected from each mouse, serum was separated and levels of various toxicity markers were analyzed. All of the measured biomarkers in samples collected from mice were within the normal range which excludes any toxicity caused by these drugs. Furthermore, visceral organs such as, heart, lungs, liver, intestine, spleen and kidney from each mouse were also collected, fixed in formalin and embedded in paraffin to assess any toxicity associated abnormality in cell morphology and tissue structure following hematoxylin and eosin staining.

[4] = test system: 1205 Lu melanoma xenografts; assay: 1205 Lu melanoma xenograft, oral drug treatment; format: in vivo, Athymic-Foxnlnu nude mice; conditions: for reduced growth of 1205 Lu xenograft / tumor development: AZD5363 150 mg/kg, MK1775 50 mg/kg, oral daily for 18 days, vs control, FIG. 4C; for reduced growth of 1205 Lu xenograft tumors: b.i.d.: AZD5363 130 mg/kg 4 days on/3 off, MK1775 30 mg/kg 3 days on/4 off, consecutive dosing in combination, 18 days, FIG. 4E
Method: 1205 Lu melanoma xenograft tumors were established by subcutaneous injection of 1×10^6 1205 Lu cells injected above both left and right rib cages of 4-6 week-old female Athymic-Foxnlnu nude mice (Harlan Sprague Dawley). Six days later, when a fully vascularized tumor had formed, mice were randomly divided into treatment groups described below. Body weight in grams and dimensions of developing tumors in mm^3 were measured on alternate days (1-6). Drugs were prepared in 0.5% methylcellulose, 0.5% Tween 80, 5% DMSO and […] administered per oral treatment.
Group 1 (vehicle control, 0.5% methylcellulose, 0.5% Tween 80, 5% DMSO) daily for 18 days;
Group 3 (MK1775, 50 mg/kg) daily for 18 days; and
Group 5 (vehicle control, 0.5% methylcellulose, 0.5% Tween 80, 5% DMSO) b.i.d. (twice a day) for 18 days;
Group 7, (MK1775, 30 mg/kg b.i.d. for 3 days on, 4 days off) for 18 days; and […]

[5] = test system: UACC 903 cells; assay: RNA sequencing, differentially expressed genes; format: cell-based, human; conditions: 24 hours after treatment; intensity difference test p<0.05
Source text: Twenty-four hours following treatment with tested agents, total RNA was extracted from UACC 903 cells using mirVana RNA isolation kit (Life Technologies, Grand Island, NY). Next, using SureSelect Strand Specific RNA Library Preparation kit (Agilent) cDNA libraries were constructed, polyA RNA was purified with oligo (dT) beads and then extracted RNA was processed through fragmentation, reverse transcription, end repair, 3′-end adenylation, adaptor ligation, PCR amplification and SPRI bead purification (Beckman Coulter). For multiplexed high-throughput sequencing, the unique barcode sequences were incorporated. Libraries were then denatured using the Illumina protocol, diluted with pre-chilled hybridization buffer and loaded onto TruSeq SR v3 flow cells on an Illumina HiSeq 2500 (50 cycles, single-read). Sequencing reads were extracted by using Illumina CASAVA pipeline Version 1.8 and aligned to the human reference genome (hg38) using Tophat (version 2.0.9) as described in detail in Trapnell et al, Bioinformatics 2009; 25(9): 1105-11. SeqMonk (version 0.32.0) was used for the identification of differentially expressed genes. Following RNA-Seq quantitation, 75% percentile normalization was performed and significant alterations were determined via intensity difference test with Benjamini and Hochberg multiple testing correction (p-value <0.05). […]

[6] = test system: UACC 903 melanoma cells; assay: Western blotting of treated cells; format: cell-based, human; conditions: 1, 3 or 10 μM AZD5363, FIG. 5C; for phosphorylated CDK1 levels: 1 μM MK1775
Method: Cell lysates were collected 48-96 hours after siRNA transfection or drug treatment by washing plates with PBS followed by addition of RIPA lysis buffer containing Halt Protease & Phosphatase Inhibitor Cocktail (Thermo Scientific, Rockford, IL, USA). Lysates were centrifuged (10,000×g) for 10 minutes at 4° C. to remove cell debris. Protein concentration was measured using the bicinchoninic acid assay kit (Thermo Scientific, Rockford, IL, USA). 25 μg of respective lysates were loaded onto 4-12% Bis-Tris NuPAGE gels (Life Technologies, Grand Island, NY) and run in an XCell SureLock Mini-Cell gel apparatus (Life Technologies, Grand Island, NY), transferred to polyvinylidene difluoride membranes (PVDF) (Pall Corporation, Port Washington, NY), probed with respective primary antibody followed by horseradish peroxidase-conjugated secondary antibody, and exposed using ECL Western Blotting Substrate (Thermo Scientific, Rockford, IL, USA) or Supersignal West Femto Chemiluminescent Substrate (Thermo Scientific, Rockford, IL, USA). Primary antibodies used: p21 (sc-756), p27 (sc-528), PLK1 (sc-17783), p53 (sc-6243) and ERK2 (sc-1647) from Santa Cruz Biotechnology (Dallas, TX), pAKT (S473 in AKT1, 5474 in AKT2 and 5472 in AKT3, #9271), AKT3 (#3788), Total AKT (#4685), pWEE1 (#4910), WEE1 (#4936), p-CDC2 (Y15) (#9111), p-CDC2 ([…]) (#9114), CDC2 (#9112) CHK1 (#2345), pCHK1 (#2344), pRB ([…]/811) (#9308), pRB ([…]) (#9301), pRB ([…]) (#9307), RB (#9309), FOXM1 (#5436), p-Histone H2AX (S139) (#2577) and Cleaved PARP (#9541) from Cell Signaling (Danvers, MA). Secondary antibodies goat anti-rabbit IgG-HRP (sc-2004) and goat anti-mouse IgG-HRP (sc-2005) were purchased from Santa Cruz Biotechnology, Dallas, TX.

[7] = test system: UACC 903 cells; assay: cytotoxicity of pharmacological agents alone or combined (CellTiter 96), 48 hours; format: cell-based; conditions: Homo sapiens, UACC-903, read-out: reduced cell viability
Method: as §1

NC1(C(=O)N[C@@H](CCO)c2ccc(Cl)cc2)CCN(c2ncnc3[nH]ccc23)CC1 [AZD5363]
cell viability, single agents [1]: reduced cell viability | decrease in tumor size / tumor development [2]: 36% | CREA [3]: 0.1 ± 0^ mg/dL | BUN [3]: 25.8 ± 2.2 mg/dL | TBIL [3]: 0.5 ± 0.1 mg/dL | ALB [3]: 2.5 g/dL | SGPT (ALT) [3]: 41.3 ± 7.4 u/L | ALKP [3]: 86.3 ± 7.5 u/L | GLOB [3]: 2.6 ± 0.1 g/dL | TP [3]: 5.1 ± 0.1 g/dL | CHOL [3]: 113.5 ± 7.6 mg/dL | GLU [3]: 214 ± 30.6 mg/dL | AMYL [3]: 1891 ± 129.7 U/L | reduced growth of 1205 Lu xenograft / tumor development [4]: ~50% | reduced growth of 1205 Lu xenograft tumors [4]: ~30% | number of significantly deregulated genes [5]: 64 genes | phosphorylated CDK1 levels [6]: reduced the phosphorylation of CDK1 in a dose-dependent manner | phosphorylated PRAS40 levels [6]: dose-dependently decreased phosphorylated PRAS40 levels

CC(C)NC[C@@H](C(=O)N1CCN(c2ncnc3c2[C@H](C)C[C@H]3O)CC1)c1ccc(Cl)cc1 [GDC0068, ipatasertib]
cell viability, single agents [1]: reduced cell viability

C=CCn1c(=O)c2cnc(Nc3ccc(N4CCN(C)CC4)cc3)nc2n1-c1cccc(C(C)(C)O)n1 [MK1775, 2-allyl-1-(6-(2-hydroxypropan-2-yl)pyridin-2-yl)-6-((4-(4-methylpiperazin-1-yl)phenyl)amino)-1H-pyrazolo[3,4-d]pyrimidin-3(2H)-one]
cell viability, single agents [1]: reduced cell viability | relative single-agent activity ([1]; C8161.C19 cell line): significantly more effective | cytotoxicity at 0.63 µM [7]: 35 to 40% | decrease in tumor size / tumor development [2]: ineffective | CREA [3]: 0.1 ± 0 mg/dL | BUN [3]: 25.3 ± 1.9 mg/dL | TBIL [3]: 0.6 ± 0 mg/dL | ALB [3]: 0.0026 ± 0.0001 g/dL | SGPT (ALT) [3]: 55 ± 10.1 u/L | ALKP [3]: 75 ± 5.6 u/L | GLOB [3]: 2.6 ± 0 g/dL | TP [3]: 5.2 ± 0.1 g/dL | CHOL [3]: 142.5 ± 4.6 mg/dL | GLU [3]: 237.5 ± 31.4 mg/dL | AMYL [3]: 2251.8 ± 50.2 U/L | reduced growth of 1205 Lu xenograft / tumor development [4]: ~50% | reduced growth of 1205 Lu xenograft tumors [4]: ~30% | number of significantly deregulated genes [5]: 94 genes | phosphorylated CDK1 levels [6]: decreased phosphorylated CDK1 levels

From patent US20240082252A1, “COMPOSITIONS AND METHODS RELATING TO CANCER” (The Penn State Research Foundation, priority 2015, published 2024)
